Here are results for 31 molecules from patent US20090215742A1, “AMIDE […]” (PFIZER, INC., priority 2005, published 2009).

What is called inhibition is the percentage by which the read-out fell short of the control.

The target in the experiment is T1, HSP-90 (Homo sapiens, UniProt P07900).
T1 construct: fused on or other part: 6-His tag at the C-terminus
Put plainly: HSP-90 SPA (scintillation proximity assay) competition binding assay, displacement of tritiated propyl-Geldanamycin. Conditions: for inhibition at 1 µM: read-out: % inhibition @ 1 μM; for inhibition at 10 µM: read-out: % inhibition @ 10 μM. How it is done:
Compounds of the present invention were evaluated for potency against HSP-90 using a SPA (scintillation proximity assay) competition binding assay. Briefly, either full length or N-terminal HSP-90 that contains a 6-His tag on its C-terminus binds to copper on Yttrium-silicate scintillant beads via the His-tag. Tritiated propyl-Geldanamycin (pGA), whose structure is shown below, is an analog of a natural inhibitor of HSP-90 called Geldanamycin.
Tritiated pGA, which contains a tritiated propyl-amine group added at the #17 position, binds HSP-90 and brings the isotope into proximity with the beads. […] The beta signal emitted from the isotope excites the scintillant, which creates a measurable signal. As competitive compounds are added to the assay mixture, they compete with bound tritiated pGA at the ATP-binding site on the N-terminal of HSP-90. When a compound displaces the labeled pGA, the signal is reduced (the beta-particles are no longer in proximity with the bead). This reduction in signal is used to quantify the extent to which the inhibitor/compound is competitive with pGA.
Typical reaction solutions contained 30 nM HSP-90 and 200 nM ^3H-pGA in binding buffer (100 mM Hepes, pH 7.5 and 150 mM KCl). […] Inhibitors were added to the HSP-90/^3H-pGA solutions at eleven different concentrations for Ki determinations. […] To determine percent inhibition, the compound was tested at 1 and 10 μM. The final DMSO in the samples was 4%. Copper-Ysi beads (Amersham, #RPNQ0096) that have been diluted in binding buffer were added to each well to give a final concentration of 100 μg/well. The plates were sealed, covered with a foil-covered lid and shaken for 30 minutes at room temperature. The beads were allowed to settle for 30 minutes after which the plates were counted using a Packard TopCount NXT instrument. This procedure has also been adapted for medium throughput using a Beckman Biomek FX. Samples were run in duplicate and on two separate days to assure an accurate value of Ki.
For Ki determinations, the corrected cpm's (actual cpm's minus background) were plotted vs. inhibitor concentration using GraphPad Prism software. […] The IC50 was then used to calculate the Ki by using the Cheng-Prusoff equation: […]
This is normally true when the observed IC50 is […] the HSP-90 concentration. For a tight binding inhibitor, the following equation can be applied: […]
EL and ELo are the radioligand-HSP-90 complexes in the presence and absence of inhibitor, respectively. EL/ELo represents the fractional signal in the presence of inhibitor. Io, Eo, and Lo are the inhibitor, HSP-90, and radioligand concentrations, respectively.

Each structure is given as a SMILES string.

Regarding `O=C(c1ccc(O)cc1O)N1CCC(Oc2ccc(Cl)cc2)CC1` [Example 68, 4-{[4-(4-chlorophenoxy)piperidin-1-yl]carbonyl}benzene-1,3-diol], the inhibition at 1 µM was 37.2% and the inhibition at 10 µM was 78.6%.

Turning to `O=C(c1ccc(O)cc1O)N1CCC(CCc2cnccn2)CC1` [Example 47, 4-{[4-(2-pyrazin-2-ylethyl)piperidin-1-yl]carbonyl}benzene-1,3-diol], the inhibition at 1 µM was 43.4% and the inhibition at 10 µM stood at 80%.

Consider `O=C1CC2(CCN(C(=O)c3ccc(O)cc3O)CC2)Oc2ccccc21` [Example 85], for which the inhibition at 1 µM is 52.1% and the inhibition at 10 µM came to 79.6%.

As for `O=C(c1ccc(O)cc1O)N1CCC(CCc2ccccc2)C1` (stereo not shown) [Example 65, 4-{[3-(2-phenylethyl)pyrrolidin-1-yl]carbonyl}benzene-1,3-diol], the inhibition at 1 µM was determined as 69.7% and the inhibition at 10 µM was 87%.

For the molecule `COc1ccc(Cc2nnc3n2CCN(C(=O)c2ccc(O)cc2O)CC3)cc1` [Example 116, 4-{[3-(4-methoxybenzyl)-5,6,8,9-tetrahydro-7H-[1,2,4]triazolo[4,3-d][1,4]diazepin-7-yl]carbonyl}benzene-1,3-diol], the inhibition at 1 µM was 5% and the inhibition at 10 µM amounted to 62.1%.

For the molecule `O=C(c1ccc(O)cc1O)N1CCC(COc2cccc(Cl)c2)C1` (stereo not shown) [Example 87, 4-({3-[(3-chlorophenoxy)methyl]pyrrolidin-1-yl}carbonyl)benzene-1,3-diol], the inhibition at 1 µM is 36.7% and the inhibition at 10 µM stood at 65%.

In the case of `O=C(c1cc(-c2cc[nH]n2)ccc1O)N1Cc2ccccc2C1` [Example 33, 2-(1,3-dihydro-2H-isoindol-2-ylcarbonyl)-4-(1H-pyrazol-3-yl)phenol], the inhibition at 1 µM came to 2% and the inhibition at 10 µM is 20.9%.

With `Cc1ccc(OCC2CCCN(C(=O)c3ccc(O)cc3O)C2)cn1` (stereo not shown) [Example 60, 4-[(3-{[(6-methylpyridin-3-yl)oxy]methyl}piperidin-1-yl)carbonyl]benzene 1,3-diol], the inhibition at 1 µM was 77.6% and the inhibition at 10 µM was found to be 88.1%.

`CCc1nc(COCC2CCN(C(=O)c3ccc(O)cc3O)C2)no1` (stereo not shown) [Example 58, 4-[(3-{[(5-ethyl-1,2,4-oxadiazol-3-yl)methoxy]methyl}pyrrolidin-1-yl)carbonyl]benzene 1,3-diol]: the inhibition at 1 µM was 29.3% and the inhibition at 10 µM came to 72.5%.

Take `COc1ccc(F)c(C2=NOC3(COCCN(C(=O)c4ccc(O)cc4O)C3)C2)c1` (stereo not shown) [Example 132, 4-{[3-(2-fluoro-5-methoxyphenyl)-1,7-dioxa-2,10-diazaspiro[4.6]undec-2-en-10-yl]carbonyl}benzene-1,3-diol]: the inhibition at 1 µM worked out at 33.3% and the inhibition at 10 µM amounted to 73.9%.

For the molecule `O=C(c1ccc(Cl)cc1O)N1Cc2ccccc2C1` [Example 26, 5-chloro-2-(1,3-dihydro-2H-isoindol-2-ylcarbonyl)phenol], the inhibition at 1 µM was 1% and the inhibition at 10 µM was determined as 39%.

Take `Cc1ccc2c(c1)C=CC1(CCN(C(=O)c3ccc(O)cc3O)CC1)O2` [Example 82, 4-[(6-methyl-1′H-spiro[chromene-2,4′-piperidin]-1′-yl)carbonyl]benzene-1,3-diol]: the inhibition at 1 µM was 62.8% and the inhibition at 10 µM was 85.3%.

For `O=C(c1ccc(O)cc1O)N1CCc2nnc(-c3cccc4ccccc34)n2CC1` [Example 134, (2,4-Dihydroxy-phenyl)-(3-naphthalen-1-yl-4,5,7,8-tetrahydro-1,2,3a,6-tetraaza-azulen-6-yl)-methanone], the inhibition at 1 µM was determined as 3.7% and the inhibition at 10 µM came out at 37.6%.

As to `COc1ccccc1-c1nnc(CN(C)C(=O)c2ccc(O)cc2O)o1` [Example 118, 2,4-Dihydroxy-N-{[5-(2-methoxyphenyl)-1,3,4-oxadiazol-2-yl]methyl}-N-methylbenzamide], the inhibition at 1 µM came out at 15.4% and the inhibition at 10 µM was 57%.

As to `CN(C(=O)c1ccc(O)cc1O)[C@H]1CCCC[C@@H]1O` [Example 45, 2,4-dihydroxy-N-(2-hydroxycyclohexyl)-N-methylbenzamide], the inhibition at 1 µM was determined as 9.6% and the inhibition at 10 µM worked out at 38.3%.

On to `C[C@H](c1cccc2ccccc12)N(C)C(=O)c1ccc(O)cc1O` [Example 81, 2,4-dihydroxy-N-methyl-N-[1-(1-naphthyl)ethyl]benzamide], for which the inhibition at 1 µM is 29% and the inhibition at 10 µM came to 73.8%.

For `O=C(c1ccc(CO)cc1)N1Cc2ccccc2C1` [Example 184, [4-(1,3-dihydro-2H-isoindol-2-ylcarbonyl)phenyl] methanol], the inhibition at 10 µM came out at 0%.

As for `O=C(c1ccc(O)cc1O)N1CCc2ccccc2C1c1ccccc1` (stereo not shown) [Example 103, (2,4-Dihydroxy-phenyl)-(1-phenyl-3,4-dihydro-1H-isoquinolin-2-yl)-methanone], the inhibition at 1 µM came out at 64.5% and the inhibition at 10 µM turned out to be 87.8%.

With `O=C(c1ccc(O)cc1O)N1CCC(CCc2cncnc2)CC1` [Example 50, 4-{[4-(2-pyrimidin-5-ylethyl)piperidin-1-yl]carbonyl}benzene-1,3-diol], the inhibition at 1 µM was determined as 34.6% and the inhibition at 10 µM turned out to be 77.7%.

Consider `C[C@@H](c1ccccc1)N(C)C(=O)c1ccc(O)cc1O` [Example 66, 2,4-dihydroxy-N-methyl-N-(1-phenylethyl)benzamide], for which the inhibition at 1 µM was 55.5% and the inhibition at 10 µM is 84.8%.

`O=C(c1ccc(O)cc1O)N1CCC(c2ccccc2)C1` (stereo not shown) [Example 93, 4-[(3-phenylpyrrolidin-1-yl)carbonyl]benzene-1,3-diol]: the inhibition at 1 µM was 34.5% and the inhibition at 10 µM came out at 76.1%.

On to `Cc1ccc(OC2CCN(C(=O)c3ccc(O)cc3O)CC2)cc1` [Example 74, 4-{[4-(4-methylphenoxy)piperidin-1-yl]carbonyl}benzene-1,3-diol], for which the inhibition at 1 µM worked out at 47.7% and the inhibition at 10 µM came to 80.7%.

As for `COc1ccc(CCN(C)C(=O)c2ccc(O)cc2O)cc1OC` [Example 102, N-[2-(3,4-dimethoxyphenyl)ethyl]-2,4-dihydroxy-N-methylbenzamide], the inhibition at 1 µM was 9.8% and the inhibition at 10 µM was 54.4%.

Turning to `CN(Cc1nc2ccccc2o1)C(=O)c1ccc(O)cc1O` [Example 123, N-(1,3-benzoxazol-2-ylmethyl)-2,4-dihydroxy-N-methylbenzamide], the inhibition at 1 µM turned out to be 25.5% and the inhibition at 10 µM is 65.6%.

For `CN(Cc1ccc(Oc2ccccc2)cc1)C(=O)c1ccc(O)cc1O` [Example 107, 2,4-dihydroxy-N-methyl-N-(4-phenoxybenzyl)benzamide], the inhibition at 1 µM was determined as 51.1% and the inhibition at 10 µM was 83.4%.

For the molecule `O=C(c1ccc(O)cc1O)N1CCCC(COc2cccc(Cl)c2)C1` (stereo not shown) [Example 59, 4-({3-[(3-chlorophenoxy)methyl]piperidin-1-yl}carbonyl)benzene-1,3-diol], the inhibition at 1 µM amounted to 58.6% and the inhibition at 10 µM turned out to be 82.9%.

As for `COc1ccc2oc(N3CCN(C(=O)c4ccc(O)cc4O)CC3)nc2c1` [Example 127, 4-{[4-(5-methoxy-1,3-benzoxazol-2-yl)piperazin-1-yl]carbonyl}benzene-1,3-diol], the inhibition at 1 µM is 21.1% and the inhibition at 10 µM came out at 60.3%.

Take `O=C(c1ccc(O)cc1O)N1CCOC(COc2cc(F)cc(F)c2)C1` (stereo not shown) [Example 114, 4-({2-[(3,5-difluorophenoxy)methyl]morpholin-4-yl}carbonyl)benzene-1,3-diol]: the inhibition at 1 µM stood at 60.2% and the inhibition at 10 µM worked out at 83.2%.

Turning to `O=C(c1ccc(O)cc1O)N1CCC(c2cccc(Cl)c2)C1` (stereo not shown) [Example 96, 4-{[3-(3-chlorophenyl)pyrrolidin-1-yl]carbonyl}benzene-1,3-diol], the inhibition at 1 µM was 20.8% and the inhibition at 10 µM was 67.6%.

On to `CN(CCc1ccccc1)C(=O)c1ccc(O)cc1O` [Example 108, 2,4-dihydroxy-N-methyl-N-(2-phenylethyl)benzamide], for which the inhibition at 1 µM was 40.5% and the inhibition at 10 µM came to 83.1%.

As for `COCc1nccc(C2CCCN(C(=O)c3ccc(O)cc3O)C2)n1` (stereo not shown) [Example 64, 4-({3-[2-(methoxymethyl)pyrimidin-4-yl]piperidin-1-yl}carbonyl)benzene-1,3-diol], the inhibition at 1 µM stood at 5.9% and the inhibition at 10 µM is 59.2%.
